Test results from patent US20060069132A1, “Azolecarboxamide herbicides” (priority 2004, published 2006).

Tests used:
yellow nutsedge = assay: Test C pre-/postemergence herbicide test; format: in vivo, Cyperus esculentus; settings: for Nutsedge, Yellow plant response rating: 500 g ai/ha
In short: (§1)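 Emerged plants at the 1- to 4-leaf stage (2–18 cm), or freshly planted seeds, received test chemicals in a non-phytotoxic solvent mixture with surfactant. Response was visually scored against controls after 12 to 14 days in the greenhouse, on a 0 (no effect) to 100 (complete control) scale.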

barnyardgrass = assay: Test B flooded paddy test; format: in vivo, Echinochloa crus-galli; settings: 1000 g ai/ha, visual rating, scale 0 to 100 (0 no effect, 100 complete control), 13 to 15 days
In short: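 Treated at 2-leaf (paddy) or 1–4-leaf, 2–18 cm (postemergence); greenhouse 13–15 d; visual score vs control, 0 none to 100 complete control; dash = not tested.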

cocklebur = assay: Test B pre-/postemergence herbicide test; format: in vivo, Xanthium strumarium; settings: for Plant response rating, Cocklebur: visual rating after 13 to 15 days
In short: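 Herbicidal effect was judged by eye on a 0–100 scale after plants stood 13 to 15 days in the greenhouse following pre- or postemergence treatment with surfactant-containing formulations.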

velvetleaf = assay: Test A pre-/postemergence herbicide test; format: in vivo, Abutilon theophrasti; settings: for Plant response rating, Velvetleaf: Postemergence; for Velvetleaf plant response rating: Preemergence
In short: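 Both application timings were run together: directed soil spray over freshly planted seeds in sandy loam, and runoff spray onto 2–10 cm seedlings. Evaluation after ~10 days in greenhouse used a 0–100 visual scale versus untreated controls.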

woolly cupgrass = assay: Test C pre-/postemergence herbicide test; format: in vivo, Eriochloa villosa; settings: for Cupgrass, Woolly plant response rating: 500 g ai/ha
In short: as §1

common ragweed = assay: Test C pre-/postemergence herbicide test; format: in vivo, Ambrosia elatior; design: key to Plant response rating, Ragweed: 0 = no effect, 100 = complete control; settings: for Ragweed plant response rating: 500 g ai/ha
In short: as §1

goosegrass = assay: Test C pre-/postemergence herbicide test; format: in vivo, Eleusine indica; settings: for Goosegrass plant response rating: 500 g ai/ha
In short: as §1

[1] = 31 g ai/ha, preemergence, scale 0 to 100
[2] = postemergence, 125 g ai/ha, scale 0 to 100
[3] = postemergence, 31 g ai/ha, scale 0 to 100
[4] = postemergence, 62 g ai/ha, scale 0 to 100
[5] = Postemergence, 125 g ai/ha, scale 0 (no effect) to 100 (complete control)
[6] = Postemergence, 500 g ai/ha, scale 0 (no effect) to 100 (complete control)
[7] = Preemergence, 500 g ai/ha, scale 0 to 100
[8] = 2000 g ai/ha, 0 to 100 scale, 0 no effect, 100 complete control
[9] = 500 g ai/ha, visual rating, 0 to 100 scale (0 no effect, 100 complete control)
[10] = 125 g ai/ha, scale 0-100, preemergence
[11] = Postemergence, 125 g ai/ha, scale 0 to 100, 0 no effect, 100 complete control
[12] = 125 g ai/ha, scale 0 (no effect) to 100 (complete control), visual, 12 to 14 days, preemergence
[13] = 250 g ai/ha, scale 0 to 100 (0 no effect, 100 complete control), visual, 12 to 14 days, preemergence
[14] = Postemergence, 250 g ai/ha, scale 0 to 100, 0 no effect, 100 complete control
[15] = Preemergence, scale 0 to 100, 0 no effect, 100 complete control

Row | Structure (SMILES) | Plant response rating (0 = no effect, 100 = complete control), Nutsedge, Yellow (yellow nutsedge; 62 g ai/ha, preemergence) | Plant response rating, Nutsedge, Yellow (yellow nutsedge; [4]) | Barnyardgrass plant response rating (barnyardgrass) | Cocklebur plant response rating (cocklebur; [5]) | Plant response rating, Cocklebur (cocklebur; [6]) | Cocklebur plant response rating (cocklebur; [7]) | Plant response rating, Velvetleaf (velvetleaf; [8]) | Velvetleaf plant response rating (velvetleaf; [9]) | Velvetleaf plant response rating (velvetleaf; [8]) | Plant response rating (0 = no effect, 100 = complete control), Cupgrass, Woolly (woolly cupgrass; 62 g ai/ha, preemergence) | Plant response rating, Cupgrass, Woolly (woolly cupgrass; [11]) | Plant response rating, Cupgrass, Woolly (woolly cupgrass; [4]) | Plant response rating (0 = no effect, 100 = complete control), Ragweed (common ragweed; 62 g ai/ha, preemergence) | Plant response rating, Ragweed (common ragweed; [4]) | Plant response rating (0 = no effect, 100 = complete control), Goosegrass (goosegrass; 62 g ai/ha, preemergence) | Plant response rating, Goosegrass (goosegrass; [11]) | Plant response rating, Goosegrass (goosegrass; [4]) | other results
1 | C=Cn1nc(C(C)(C)C)cc1C(=O)Nc1cccc(C(=O)NCC)c1 [Compound 33] | 0 | 0 | 90 | 80 | 100 | 30 | 40 | 20 | 80 | 20 | 60 | 60 | 0 | 60 | 60 | 40 | 40 | Plant response rating, Nutsedge, Yellow (yellow nutsedge; 16 g ai/ha, scale 0 to 100, last section of Table C, preemergence): 0; Plant response rating, Nutsedge, Yellow (yellow nutsedge; [1]): 0; Plant response rating, Nutsedge, Yellow (yellow nutsedge; [2]): 10; Plant response rating, Nutsedge, Yellow (yellow nutsedge; [3]): 0; Plant response rating, Velvetleaf (velvetleaf; 500 g ai/ha, 0 to 100 scale, 0 no effect, 100 complete control): 30; Plant response rating, Cupgrass, Woolly (woolly cupgrass; [1]): 20; Plant response rating, Cupgrass, Woolly (woolly cupgrass; [10]): 50; Plant response rating, Cupgrass, Woolly (woolly cupgrass; [3]): 50; Plant response rating, Ragweed (common ragweed; [1]): 0; Plant response rating, Ragweed (common ragweed; [2]): 70; Plant response rating, Goosegrass (goosegrass; [1]): 20; Plant response rating, Goosegrass (goosegrass; [10]): 90; Plant response rating, Goosegrass (goosegrass; [3]): 40
2 | C=CCNC(=O)c1cccc(NC(=O)c2cc(C(C)(C)C)nn2CC)c1 [Compound 46] | 0 | 20 | 90 | 30 | 90 | 30 | 75 | 30 | 85 | 10 | 60 | 40 | 10 | 70 | 60 | 50 | 40 | Plant response rating, Nutsedge, Yellow (yellow nutsedge; [12]): 0; Plant response rating, Nutsedge, Yellow (yellow nutsedge; [13]): 0; Nutsedge, Yellow plant response rating (yellow nutsedge; Postemergence, scale 0 to 100): 40; Plant response rating, Nutsedge, Yellow (yellow nutsedge; [14]): 20; Nutsedge, Yellow plant response rating (yellow nutsedge; [15]): 0; Plant response rating, Cupgrass, Woolly (woolly cupgrass; [12]): 10; Plant response rating, Cupgrass, Woolly (woolly cupgrass; [13]): 30; Cupgrass, Woolly plant response rating (woolly cupgrass; Postemergence, scale 0 to 100): 70; Plant response rating, Cupgrass, Woolly (woolly cupgrass; [14]): 70; Cupgrass, Woolly plant response rating (woolly cupgrass; [15]): 80; Plant response rating, Ragweed (common ragweed; [12]): 40; Plant response rating, Ragweed (common ragweed; [13]): 90; Ragweed plant response rating (common ragweed; Postemergence, scale 0 to 100): 80; Plant response rating, Ragweed (common ragweed; [14]): 80; Ragweed plant response rating (common ragweed; [15]): 90; Plant response rating, Goosegrass (goosegrass; [12]): 90; Plant response rating, Goosegrass (goosegrass; [13]): 100; Goosegrass plant response rating (goosegrass; Postemergence, scale 0 to 100): 80; Plant response rating, Goosegrass (goosegrass; [14]): 50; Goosegrass plant response rating (goosegrass; [15]): 100
